Patent publication US20070071773A1, “Compositions and methods for the treatment and prophylaxis of infections caused by gram positive bacteria” (priority 2002, published 2007)

Tested on: GAS strain JS95
Assay: Bacterial growth inhibition (disks on blood-agar plate; THY medium)
Assay type: cell-based, Group A Streptococcus (GAS)
Protocol: One thousands to 1500 CFU of GAS strain JS95 were spread on the surface of a blood-agar plate, incubated at room temperature and disks with different concentrations of antibiotic (control) or peptide (25, 50 and 200 μg) were placed on the surface. The plates were incubated at 37° C. for 16 hours. Areas with no hemolysis (N. hemo.) indicate inhibition of GAS growth by antibiotics. Area with hemolysis (hemo.) indicates GAS growth in the presence of 200 μg of the peptide.
The inventors next examined whether the 17 amino acid peptide of the invention protects mice challenged with highly virulent strains by inhibition of bacterial growth. Different concentrations (1000-1500 CFU) of GAS strain JS95 were spread on the surface of a blood-agar plate and incubated at room temperature. Disks loaded with different concentrations of antibiotics (control) or peptide (25, 50 and 200 μg) were placed on the surface. […] 178:6087-6090 (1996); Havarstein, et al. J. Bacteriol. 179:6586-6584 (1997)] it is plausible that the peptide acts on a TCS. This in turn activates a signal transduction process in the bacteria leading to attenuation of virulence.

## DIFKLVIDHISMKARKK (SilCR peptide) [17 amino acid synthetic peptide, predicted mature form of the pheromone peptide encoded by the SilCR ORF; used at 70% or 90% purity]
THY medium and blood agar plates
  inhibition of GAS growth: does not inhibit GAS growth
Disks with peptide up to 200 μg on blood-agar plate, 1000-1500 CFU JS95, 37° C. 16 hours, FIG. 10
  bacterial growth around disk: bacterial growth was observed
